Measurements published in paper PMC11323011, “Combatting Antibiotic-Resistant Staphylococcus aureus: Discovery of TST1N-224, a Potent Inhibitor Targeting Response Regulator VraRC, through Pharmacophore-Based Screening and Molecular Characterizations” (Journal of Chemical Information and Modeling, 2024).

Target: T1, VraRC (C-terminal DNA-binding domain of response regulator VraR) (Staphylococcus aureus, UniProt Q7A4R9)
T1 construct: residues 138-209), C-terminal His-tag
Assay: LSPR (VraRC immobilized on NTA chip, […] fit); supported by 1H-15N HSQC NMR titration and FP inhibition of DNA binding (IC50 […])

T1 sequence (Q7A4R9 138-209): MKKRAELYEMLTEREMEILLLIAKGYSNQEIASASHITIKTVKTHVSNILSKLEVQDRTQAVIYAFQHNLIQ

TST1N-224
Kd: 23.4 ± 1.2 µM
